Data taken from patent publication US12257290B2, “PIC1 inhibition of myeloperoxidase oxidative activity in an animal model” (priority 2018, dated 2025).
Ends that are not written are not given here.

Tests used:
[1] = tested on: complement activation in normal human serum (NHS); assay: Ovalbumin-antiovalbumin immune complex-initiated complement activation in normal human serum (C5a, iC3b, SC5b-9 ELISA); type: biochemical
Experimental: Immune complex activation of NHS was performed as follows. NHS was stimulated with three different types of immune complexes (IC) to induce complement activation. Heat-aggregated IgG was generated by incubating intravenous immune globulin at 50 mg/ml at 63° C. for 30 min [26]. Ovalbumin-antiovalbumin immune complexes were made by incubating 0.01 ml anti-ovalbumin antibody with an equal volume of ovalbumin, at 0.25 mg/nil, at 37° C. for 30 minutes and then storing at 4° C. overnight. C1 immune complexes were formed by incubating 0.02 ml anti-C1q goat sera with 5 μl of C1, at 200 μg/ml, at 30° C. for 30 minutes and then placing in an ice water bath. For C5a and C5b-9 assays, activation of NHS was performed by pre-incubating 5% NHS with titrating concentrations of PA-dPEG24 in 0.3 ml of GVBS^++ buffer for 30 minutes at room temperature. […]
ELISA was performed as follows. […] Colorimetric detection was performed with TMB, stopped with H2SO4 and read on a BioTek Synergy HT plate reader at 450 nm.
To provide confirmation of the results with heat-aggregated IgG, the antigen-antibody immune complex most often utilized in animal models of complement activation, ovalbumin and antiovalbumin [27, 28], was then tested. The ovalbumin-antiovalbumin immune complexes were used to stimulate complement activation in NHS and the same three effectors, C5a, iC3b and C5b-9, were measured. […]

human neutrophils [2] = assay: MPO-initiated NET formation by human neutrophils (fluorescence microscopy, PicoGreen free DNA); type: cell-based; details: for reduction in free DNA (PicoGreen): vs MPO with no inhibitor
Experimental: (§1) Neutrophils from the blood of healthy volunteers were purified from heparinized blood by Hypaque-Ficoll step gradient centrifugation, dextran sedimentation, and hypotonic lysis, as previously described.
(§2) A Neutrophil Extracellular Trap assay was performed in a microtiter plate as follows. The formation of NETs was induced by incubating 2.0×10^5 neutrophils in a 96 well tissue culture plates with RPMI media alone, or adding 0.05% of H2O2, or 12 nM PMA, or 8 μg/ml MPO, or PA-dPEG24 at various concentrations. For immune complex sera induced NET formation, activated sera was made by adding 5 μl of ovalbumin-anti-ovalbumin immune complex to 5% NHS in 0.3 ml of GVBS^++. This combination was allowed to incubate for 30 minutes at 37° C., and then 0.05 ml was added to the neutrophils in RPMI. Cells were then incubated for 1.5 hours at 37° C. in 5% CO2 incubator.
(§3) NET formation was quantitatively assayed as follows. Free DNA was measured by PicoGreen in the supernatant recovered from the NET microtiter plate well assay. Five hundred units of […] (Fisher) were added to each well to allow for digestion of released extracellular DNA for 10 minutes in 37° C. incubator. The preparation was then aliquoted into an adjacent well and mixed 1:1 with prepared PICO green reagent (Fisher). The fluorescence was then quantified on a BioTek microplate reader at Excitation 485 nm/Emission 528 nm.
NET formation was assayed by fluorescence microscopy. Purified human neutrophils were assayed on a glass slide as follows. Cells were combined with RPMI media and the indicated stimuli as mentioned above in a tube and then aliquoted onto a glass slide circled with a hydrophobic slide marker. The slides were incubated for 1.5 hours at 37° C. in a 5% CO2 incubator at 37 degrees for 1.5 hours. Slides were fixed overnight with 4% paraformaldehyde at 4° C.
For all staining, the following conditions were used. Slides were washed in PBS and incubated in blocking solution (2% normal goat serum+2% bovine serum albumin in PBS) for 1 hour at room temperature. Then the slides were incubated with primary antibody at 1:300 in 2% BSA in PBS for 1 hour at room temperature. Slides were washed in PBS 3 times and incubated in fluorescent-labeled secondary antibody at 1:1000 or DAPI (Southern Biotech) at 0.25 pg/ml final in 2% BSA in PBS for 1 hour at room temperature. Slides were then washed 3 times in PBS and were imaged. Cells were visualized using a DP70 Digital Camera (Olympus Center, Valley Forge, PA), mounted on a BX50, Olympus microscope. Staining antibody pairs used were rabbit anti-MPO (Thermo Scientific) and rabbit anti-Histone H3 (Abcam) with the secondary goat anti-rabbit Alexa Fluor 488 (Novus Biologicals). […]

human neutrophils [3] = assay: Immune complex-activated serum-initiated NET formation by human neutrophils (fluorescence microscopy, PicoGreen free DNA); type: cell-based; details: for decrease of free DNA (PicoGreen): immune complex-activated sera + hydrogen peroxide
Experimental: as §1, §2, §3
NET formation was assayed by fluorescence microscopy. […]
PA-dPEG24 inhibits immune complex-initiated NET formation by human neutrophils. A potential relationship between immune complex-initiated complement-activated human sera and NET formation by human neutrophils was evaluated. […] The immune complex-initiated complement-activated human sera was then incubated with purified human neutrophils resulting in NET formation quantified by free DNA measurement with PicoGreen. The relative contribution of immune complexes was initially evaluated by themselves compared with immune complex-initiated complement-activated human sera for generation of NETs. […]

## IALILEPICCQERAA-dPEG24 (cysteine pairing not given here) [PA-dPEG24, 15-amino acid PEGylated peptide, 24 PEG moieties at the C-terminus]
[1]; 2 mM PA-dPEG24
  measured SC5b-9: at the lower limit of detection
[1]; ovalbumin-antiovalbumin in NHS, P<0.03 vs immune complex alone
  PA-dPEG24 concentration giving statistically significant inhibition of each complement effector (C5a, iC3b, C5b-9): ≥ 0.25 mM
Human neutrophils [2]; 1.1 mM PA-dPEG24, P=0.02
  reduction in free DNA (PicoGreen): 30%
Human neutrophils [2]; 4.5 mM PA-dPEG24, P=0.001
  reduction in free DNA (PicoGreen): 3.7 fold
Human neutrophils [2]; 5 mM PA-dPEG24, MPO + hydrogen peroxide
  NET formation by fluorescence microscopy: blocked
Human neutrophils [2]; PA-dPEG24 only, no stimulus
  appearance of neutrophils incubated with PA-dPEG24 alone, fluorescence microscopy: appeared normal
Human neutrophils [3]; 2.2 mM PA-dPEG24, P=0.037
  decrease of free DNA (PicoGreen): 23%
Human neutrophils [3]; 4.5 mM PA-dPEG24, P<0.001
  decrease of free DNA (PicoGreen): 3 fold
Human neutrophils [3]; 5 mM PA-dPEG24, immune complex-initiated complement-activated sera
  NETs identified by fluorescence microscopy: no NETs were identified
